Experimental data published in patent publication US20060216792A1, “Process for producing 2-0-alpha-d-glucopyranosyl-l-ascorbic acid” (priority 2002, published 2006).

Assay: properties of crystalline AA-2G (stability, hygroscopicity, solubility)
Type: physicochemical
Text: Different from the case of L-ascorbic acid, AA-2G hardly causes Maillard reaction. […] Also, by using AA-2G together with vitamins E and P, those biological activities can be increased. • (4) It is possible that AA-2G is produced and metabolized in living bodies when L-ascorbic acid and α-glucosyl saccharide are orally in taken. […] AA-2G can be advantageously used as vitamin C-reinforcement, taste-improving agent, acidifier, stabilizer, and the like for vitamin in the form of powder, granule, tablet, and the like, or foods such as cream, chocolate, chewing gum, instant juice, instant seasoning, and the like. • (6) Crystalline AA-2G is substantially non- or hardly hygroscopic.

solubility in water: high solubility
stability (crystalline product of Example 1): sufficient stability
SMILES: O=C1O[C@H]([C@@H](O)CO)C(O)=C1O[C@H]1O[C@H](CO)[C@@H](O)[C@H](O)[C@H]1O [AA-2G, 2-O-α-D-glucopyranosyl-L-ascorbic acid]
